Results taken from patent US4579867A, “Stable pharmaceutical compositions of short-acting β-adrenergic receptor blocking agents” (American Hospital Supply Corporation, priority 1984, dated 1986).
Values after ≈ are worked out from the molar mass of the structure shown. Values joined by “and” are separate entries in the source; they are usually repeats but may differ in a detail not shown here. Equal entries are not always repeated. Where two headings read alike, the source gives them in different places.

Experiments:
β-adrenergic receptor = experiment: β-blocking activity and recovery from β-blockade in anesthetized dogs (isoproterenol heart rate response, 3-hour infusion); assay type: in vivo; details: for Recovery Time 50%: 50% recovery from β-blockade after termination of infusion; for % I (percent inhibition of heart rate response to isoproterenol): end of 3-hour infusion, isoproterenol 0.5 μg/kg; for Potency: 3-hour infusion, rate adjusted to about 50% isoproterenol inhibition, pentobarbital-anesthetized dogs
Procedure: The duration of β-blockade was determined in vivo using pentobarbital-anesthetized dogs instrumented for measurement of heart rate using a Beckman cardiotachometer triggered electronically by a phasic aortic blood pressure signal. Both vagus nerves were severed in the cervical region and the animals were mechanically ventilated. The experimental design used employed a 3-hour infusion of test compound. Bolus doses of isoproterenol (0.5 μg/kg) were used to assess the degree of β-blockade and recovery from β-blockade after […] of the infusion. The doses were spaced at 10-minute intervals and were given before, during and following the infusion of test compounds. The infusion rate was adjusted so that at the end of the 3-hour infusion period the degree of isoproterenol inhibition averaged about 50% of control.

pKa = assay type: physicochemical
[1] = Kinetic degradation study in solution at 75° C.; assay type: physicochemical
Procedure: In order to determine the pH at which the formulation would show maximum stability, a kinetic degradation study was employed. pH of solutions ranging from 2-4, containing 0.1M each of the compound of formula II and tartrate buffer were stored at 75° C. At various time intervals, samples were taken and assayed for the compound.
The kinetic data obtained was plotted as a log of drug concentration versus time. The apparent first-order rate constants were calculated from the slopes of the linear regression lines fitted to log (C)=log (Co)[…] where C is drug concentration at time t, Co is the initial drug concentration and k is the apparent first-order rate constant.
The logarithm of the potency versus time in all cases produced linear plots. The apparent first-order rate constants were calculated from the slopes of the linear regression lines (not shown) and are presented in FIG. 1.
The ratio of the two organic vehicles, namely propylene glycol and alcohol were determined by making solutions of the compound of formula II in the vehicle and testing the stability at 75° C. Samples were removed after specified times and measured for potency.
FIG. 3 illustrates the stability of the compound of formula II in hydroalcoholic solution buffered at pH 3 by sodium tartrate. An identical stability study was conducted with a solution without buffering agent (FIG. 4).

[2] = Shelf life / storage stability of solutions; assay type: physicochemical; details: within a week; room temperature; without stabilization; read-out: potency loss
[3] = Solubility in various vehicles (HPLC); assay type: physicochemical
Procedure: Initially, the solubility of the compound was determined in various vehicles. The amount dissolved was measured by HPLC (Table 2). […] Based on this acidic nature, a tartrate buffer was selected. It was foun that the molar ratio of active β-blocking agent to buffer was critical, 1:1 to 3:1 to stabilized product.
Samples were dissolved or diluted with the mobile phase, methanol--pH 3.4 phosphate buffer solution. The resulting solutions were diluted with benzoic acid internal standard solution and chromatographed on a octadecyl silane column with detection at 229 nm. […] The method is linear, quantitative, rugged and reproducible with a sensitivity of 2 ug/ml. Either peak height or peak area ratios can be used for quantitation.

[4] = Comparison of degradation in aqueous solution and in the formulation (forced degradation, HPLC); assay type: physicochemical; details: 75° C.; for degraded at 168 h: one week
Procedure: The sulfate salt of the compound of Formula II in aqueous solution when stored at 75° C. degraded about 70% in one week. In contrast, when formulated in the pharmaceutical composition as noted and placed under the same storage conditions, it degraded only about 25%.
The results of this comparison are represented in FIG. 5. Samples for the study were prepared and tested as follows:
b. Aqueous at 75° C.--10 mg of sulfate salt of Formula II were dissolved in 100 mL of deionized water. A 2 mL portion of this solution was transferred to a vial and placed in a 75° C. oven. A series of vials were prepared and evaluated at various intervals. Each time 2 mL of mobile phase was added to the vial (final conc. 50 μg/mL) for subsequent HPLC evaluation. The results are plotted as curve B in FIG. 5.
c. Forced Degradation of the Formulation was carried out using a solution containing the sulfate salt of Formula II, 100 mg/mL, in Acetate Buffer (0.35M) containing 20% of Propylene Glycol:Ethanol (50:50) having a pH 3.17. The formulation solution was divided into 2 parts, placed in 55° C. and 75° C. ovens and tested periodically. To evaluate the formulation, the solution was diluted 1 mL to 100 mL of mobile phase, then 5 mL to 100 mL in mobile phase (final conc.--50 μg/mL) for subsequent HPLC evaluation.
The rates of decomposition were monitored by HPLC and compared to the respective initial concentrations at 220 nm. In order to insure that the peak was that of the sulfate salt and not an impurity, excipient or product of decomposition, the peak was scanned using a variable wavelength detector ([…]). Using the Perkin-Elmer LC-75 Detector Stop Flow System described below:
A 70 μL portion of the sulfate salt degraded samples were injected manually into the HPLC L-75 equipped with a variable wavelength detector, programmed to scan wavelengths from 200 to 320 nm. When the sulfate salt reached the detector cell, the flow of mobile phase was stopped and the scan initiated from 200 to 320 nm. In this manner, only the peak corresponding to the sulfate salt was measured.

Q: With O=C(CC1CCCCC1)NCCNCC(O)COC(=O)c1ccccc1F (centres unmarked) [Compound 8] as the compound, how does the “Recovery Time 50%” value (β-adrenergic receptor; dogs) read?
A: Its value is 3,4 min.

Q: And the “% I (percent inhibition of heart rate response to isoproterenol)” value (β-adrenergic receptor; dogs)?
A: Its value is 43% and 55%.

Q: Which results are given for CC(C)NCC(O)COc1cccc2ccccc12 (centres unmarked) [Propranolol, reference compound]?
A: Potency (β-adrenergic receptor): 0.2 mg/kg/180 min; % I (percent inhibition of heart rate response to isoproterenol) (β-adrenergic receptor; dogs): 67 ± 6%

Q: Which pKa (pKa) does the source give for CC(C)(CNC(N)=O)NCC(O)COC(=O)c1ccccc1F (centres unmarked) [compound of formula II, N-(1,1-Dimethyl-2-ureidoethyl)-2-hydroxy-3-(O-fluorobenzoyloxy) propylamine] here?
A: Its pKa is 8.17.

Q: And the “propylene glycol to alcohol ratio and degradation” value ([1]; FIG. 2)?
A: Its value is 1:1 ratio of the two substances minimizes degradation.

Q: And the “rate of degradation (slope)” value ([1]; hydroalcoholic solution (15% propylene glycol, 15% alcohol) buffered at pH 3 by sodium tartrate)?
A: The value was 0.0387 day⁻¹.

Q: What about the “rate of degradation (slope)” value ([1]; hydroalcoholic solution (15% propylene glycol, 15% alcohol), unbuffered) of the same compound?
A: The value was 0.0709 day⁻¹.

Q: What about the “stability of buffered relative to unbuffered preparation” value ([1]; pH 3 sodium tartrate vs no buffer) of the same compound?
A: The value was “approximately twice as stable”.

Q: And the degraded at 168 h [2]?
A: The degraded at 168 h was 10%.

Q: For CC(C)(CNC(=O)N1CCOCC1)NCC(O)COC(=O)c1ccc(O)c(O)c1 (centres unmarked) [Compound 12], which Potency (β-adrenergic receptor) is on record?
A: The Potency was 0.08 mg/kg/180 min.

Q: With CCOC(=O)NCC(C)(C)NCC(O)COC(=O)c1ccccc1F (centres unmarked) [Compound 21] as the compound, how does the Potency (β-adrenergic receptor) read?
A: The Potency was 6.5 ± 1.8 mg/kg/180 min.

Q: Which Potency (β-adrenergic receptor) does the source give for CC(C)(CNC(=O)C1CCCCC1)NCC(O)COC(=O)c1ccccc1F (centres unmarked) [Compound 7] here?
A: The Potency was 1.8 mg/kg/180 min.

Q: And the “Recovery Time 50%” value (β-adrenergic receptor; dogs)?
A: The value was 8 min.

Q: And the “Recovery Time 80%” value (β-adrenergic receptor; 80% recovery from β-blockade after termination of infusion, dogs)?
A: The value was 19 min.

Q: And the “% I (percent inhibition of heart rate response to isoproterenol)” value (β-adrenergic receptor; dogs)?
A: The value was 68%.

Q: With CC(C)(CNC(=O)C1CCCCC1)NCC(O)COC(=O)c1ccccc1F (centres unmarked) [Compound 6] as the compound, how does the Potency (β-adrenergic receptor) read?
A: The Potency was 1.4 mg/kg/180 min.

Q: For CC(C)(CNC(N)=O)NCC(O)COC(=O)c1ccccc1F (centres unmarked), which Solubility ([3]; Alcohol USP (EtOH)) is on record?
A: The Solubility was 2.24 % w/w.

Q: And the Solubility ([3]; Polyethylene Glycol 200 USP (PEG))?
A: The Solubility was 2.64 % w/w.

Q: What about the Solubility ([3]; Propylene Glycol USP (PG)) of the same compound?
A: The Solubility was 3.47 % w/w.

Q: And the Solubility ([3]; WFI (5%), EtOH (45%), PEG (50%))?
A: Its Solubility is 5.21 % w/w.

Q: And the Solubility ([3]; WFI (5%), EtOH (45%), PG (50%))?
A: The Solubility was 7.20 % w/w.

Q: And the Solubility ([3]; WFI (5%), EtOH (95%))?
A: The Solubility was 7.50 % w/w.

Q: And the Solubility ([3]; WFI (5%), PEG (95%))?
A: The Solubility was 3.83 % w/w.

Q: And the Solubility ([3]; WFI (5%), PG (95%), read-out: Solubility)?
A: Its Solubility is 56 mg/mL (≈ 171 mM).

Q: And the Solubility ([3]; Water for Injection USP (WFI), read-out: Solubility)?
A: Its Solubility is 507 mg/mL (≈ 1550 mM).

Q: What about the degraded at 168 h ([4]; formulated in the pharmaceutical composition) of the same compound?
A: The degraded at 168 h was ~25%.

Q: And the increase in stability ([4]; formulated vs aqueous solution)?
A: The increase in stability was “three fold increase in stability”.

Q: What about the degraded at 168 h ([4]; aqueous solution (deionized water), aqueous solution) of the same compound?
A: The degraded at 168 h was ~70%.

Q: With CC(=O)NCC(C)(C)NCC(O)COC(=O)c1ccccc1F (centres unmarked) [Compound 4] as the compound, how does the Potency (β-adrenergic receptor) read?
A: The Potency was 2.7 mg/kg/180 min.

Q: For CC(C)C(=O)NCC(C)(C)NCC(O)COC(=O)c1ccccc1F (centres unmarked) [Compound 5], which Potency (β-adrenergic receptor) is on record?
A: The Potency was 0.6 mg/kg/180 min.

Q: Which Potency (β-adrenergic receptor) does the source give for CC(C)(CNC(N)=O)NCC(O)COC(=O)c1ccccc1F (centres unmarked) [Compound 17] here?
A: The Potency was 0.7 mg/kg/180 min.
